From the supplement of paper PMC9013687

What was measured:
[1] = tested on: Danio rerio embryo; experiment: EC10 Bladder size_Decrease; higher = less potent; details: exposure time: 4 dpf
Procedure: (§1)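 Zebrafish embryos (UFZ-OBI strain) were exposed from 2 hpf for 48 h (2 dpf) or 96 h (4 dpf) at 28 °C; spontaneous tail coiling was scored at 25 hpf. Morphological features from automated image analysis (FishInspector), heart rate and locomotor response were fitted with drc models. Quantal endpoints were dichotomised at 2.5 SD from controls and fitted with a log-logistic model; heart rate, pigmentation and STC were normalised to the replicate control mean. Betamethasone was tested as betamethasone dipropionate, diflorasone as diflorasone diacetate.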

[2] = tested on: Danio rerio embryo; experiment: EC50 Bladder size_Decrease; details: exposure time: 4 dpf
Procedure: as §1

[3] = tested on: Danio rerio embryo; experiment: EC20 Lack of SB; higher = less potent; details: exposure time: 4 dpf
Procedure: as §1

[4] = tested on: Danio rerio embryo; experiment: EC10 Eye-jaw distance_Decrease; higher = less potent; details: exposure time: 4 dpf
Procedure: as §1

[5] = tested on: Danio rerio embryo; experiment: EC50 Eye-jaw distance_Decrease; details: exposure time: 4 dpf
Procedure: as §1

[6] = tested on: Danio rerio embryo
Procedure: as §1

[7] = tested on: Danio rerio embryo; experiment: EC20 Body length_Decrease; higher = less potent
Procedure: as §1

[8] = tested on: Danio rerio embryo; experiment: EC20 LMR dark; higher = less potent; details: exposure time: 4 dpf
Procedure: as §1

[9] = tested on: Danio rerio embryo; experiment: EC20 Pericard size_Increase; higher = less potent
Procedure: as §1

[10] = tested on: Danio rerio embryo; experiment: EC20 Curvature_Increase; higher = less potent; details: exposure time: 2 dpf
Procedure: as §1

[11] = tested on: Danio rerio embryo; experiment: EC20 Bladder size_Decrease; higher = less potent; details: exposure time: 4 dpf
Procedure: as §1

[12] = tested on: Danio rerio embryo; experiment: EC50 Yolk sac size_Increase; details: exposure time: 4 dpf
Procedure: as §1

[13] = tested on: Danio rerio embryo; experiment: EC10 Any effect; higher = less potent
Procedure: as §1

[14] = tested on: Danio rerio embryo; experiment: EC20 Eye-jaw distance_Decrease; higher = less potent; details: exposure time: 4 dpf
Procedure: as §1

[15] = tested on: Danio rerio embryo; experiment: EC20 Otolith-eye distance_Decrease; higher = less potent; details: exposure time: 4 dpf
Procedure: as §1

[16] = tested on: Danio rerio embryo; experiment: EC10 Curvature_Increase; higher = less potent; details: exposure time: 2 dpf
Procedure: as §1

[17] = tested on: Danio rerio embryo; experiment: spontaneous tail coiling frequency (coils/min/embryo); higher = more spontaneous movement; details: 25 hpf
Procedure: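 Spontaneous tail coilings of zebrafish embryos exposed from 2 hpf were recorded at 24-25 hpf in 1-min videos and detected by a KNIME workflow from grey-value variance. Betamethasone was tested as the dipropionate, diflorasone as the diacetate.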

[18] = tested on: Danio rerio embryo; experiment: EC10 Body length_Decrease; higher = less potent
Procedure: as §1

[19] = tested on: Danio rerio embryo; experiment: EC50 Pericard size_Increase
Procedure: as §1

[20] = tested on: Danio rerio embryo; experiment: EC10 Otolith-eye distance_Decrease; higher = less potent; details: exposure time: 4 dpf
Procedure: as §1

[21] = tested on: Danio rerio embryo; experiment: EC20 Yolk sac size_Increase; higher = less potent; details: exposure time: 4 dpf
Procedure: as §1

[22] = tested on: Danio rerio embryo; experiment: EC50 Curvature_Increase; details: exposure time: 2 dpf
Procedure: as §1

[23] = tested on: Danio rerio embryo; experiment: EC10 LMR dark; higher = less potent; details: exposure time: 4 dpf
Procedure: as §1

[24] = tested on: Danio rerio embryo; experiment: EC20 Head trunk angle_Decrease; higher = less potent; details: exposure time: 2 dpf
Procedure: as §1

[25] = tested on: Danio rerio embryo; experiment: EC10 Pericard size_Increase; higher = less potent
Procedure: as §1

[26] = tested on: Danio rerio embryo; experiment: EC10 Yolk sac size_Increase; higher = less potent; details: exposure time: 4 dpf
Procedure: as §1

[27] = tested on: Danio rerio embryo; details: exposure time: 4 dpf
Procedure: as §1

[28] = tested on: Danio rerio embryo; experiment: EC50 Body length_Decrease
Procedure: as §1

[29] = tested on: Danio rerio embryo; experiment: EC50 Otolith-eye distance_Decrease; details: exposure time: 4 dpf
Procedure: as §1

[30] = tested on: Danio rerio embryo; experiment: EC20 Any effect; higher = less potent
Procedure: as §1

CSc1nc2cc(Cl)c(Oc3cccc(Cl)c3Cl)cc2[nH]1 [Triclabendazole]
Details | EC10 Bladder size Decrease [nM] | EC10 Curvature Increase [nM] | EC10 Eye-jaw distance Decrease [nM] | EC10 LMR dark [nM] | EC10 Otolith-eye distance Decrease [nM] | EC10 Yolk sac size Increase [nM] | EC20 Bladder size Decrease [nM] | EC20 Curvature Increase [nM] | EC20 Eye-jaw distance Decrease [nM] | EC20 Head trunk angle Decrease [nM] | EC20 LMR dark [nM] | EC20 Lack of SB [nM] | EC20 Otolith-eye distance Decrease [nM] | EC20 Yolk sac size Increase [nM] | EC50 Bladder size Decrease [nM] | EC50 Curvature Increase [nM] | EC50 Eye-jaw distance Decrease [nM] | EC50 LMR dark [nM] | EC50 Otolith-eye distance Decrease [nM] | EC50 Yolk sac size Increase [nM]
[1] | 462 | – | – | – | – | – | – | – | – | – | – | – | – | – | – | – | – | – | – | –
[2] | – | – | – | – | – | – | – | – | – | – | – | – | – | – | 497 | – | – | – | – | –
[3] | – | – | – | – | – | – | – | – | – | – | – | 481 | – | – | – | – | – | – | – | –
[4] | – | – | 695 | – | – | – | – | – | – | – | – | – | – | – | – | – | – | – | – | –
[5] | – | – | – | – | – | – | – | – | – | – | – | – | – | – | – | – | 731 | – | – | –
[8] | – | – | – | – | – | – | – | – | – | – | 240 | – | – | – | – | – | – | – | – | –
[10] | – | – | – | – | – | – | – | 1810 | – | – | – | – | – | – | – | – | – | – | – | –
[11] | – | – | – | – | – | – | 475 | – | – | – | – | – | – | – | – | – | – | – | – | –
[12] | – | – | – | – | – | – | – | – | – | – | – | – | – | – | – | – | – | – | – | 691
[14] | – | – | – | – | – | – | – | – | 708 | – | – | – | – | – | – | – | – | – | – | –
[15] | – | – | – | – | – | – | – | – | – | – | – | – | 622 | – | – | – | – | – | – | –
[16] | – | 1710 | – | – | – | – | – | – | – | – | – | – | – | – | – | – | – | – | – | –
[20] | – | – | – | – | 538 | – | – | – | – | – | – | – | – | – | – | – | – | – | – | –
[21] | – | – | – | – | – | – | – | – | – | – | – | – | – | 533 | – | – | – | – | – | –
[22] | – | – | – | – | – | – | – | – | – | – | – | – | – | – | – | 1980 | – | – | – | –
[23] | – | – | – | 178 | – | – | – | – | – | – | – | – | – | – | – | – | – | – | – | –
[24] | – | – | – | – | – | – | – | – | – | 1600 | – | – | – | – | – | – | – | – | – | –
[26] | – | – | – | – | – | 458 | – | – | – | – | – | – | – | – | – | – | – | – | – | –
[27] | – | – | – | – | – | – | – | – | – | – | – | – | – | – | – | – | – | 403 | – | –
[29] | – | – | – | – | – | – | – | – | – | – | – | – | – | – | – | – | – | – | 796 | –

Details | EC10 Any effect [nM] | EC10 Body length Decrease [nM] | EC10 Pericard size Increase [nM] | EC20 Any effect [nM] | EC20 Body length Decrease [nM] | EC20 Pericard size Increase [nM] | EC50 Any effect [nM] | EC50 Body length Decrease [nM] | EC50 Pericard size Increase [nM] | EC50 Pigmentation increase [nM] | EC50 STC decrease [nM] | spontaneous tail coiling frequency
[6], exposure time: 2 dpf | – | – | – | – | – | – | 1340 | – | – | – | – | –
[6], exposure time: 4 dpf | – | – | – | – | – | – | 556 | – | – | 690 | – | –
[6], exposure time: 25 h | – | – | – | – | – | – | – | – | – | – | 76 | –
[7], exposure time: 2 dpf | – | – | – | – | 850 | – | – | – | – | – | – | –
[7], exposure time: 4 dpf | – | – | – | – | 738 | – | – | – | – | – | – | –
[9], exposure time: 2 dpf | – | – | – | – | – | 1010 | – | – | – | – | – | –
[9], exposure time: 4 dpf | – | – | – | – | – | 775 | – | – | – | – | – | –
[13], exposure time: 2 dpf | 893 | – | – | – | – | – | – | – | – | – | – | –
[13], exposure time: 4 dpf | 344 | – | – | – | – | – | – | – | – | – | – | –
[17], 0.139 µM | – | – | – | – | – | – | – | – | – | – | – | 0.65
[17], 0.488205 µM | – | – | – | – | – | – | – | – | – | – | – | 1.35
[17], 0.577 µM | – | – | – | – | – | – | – | – | – | – | – | 1.03
[17], 0.732308 µM | – | – | – | – | – | – | – | – | – | – | – | 1.05
[17], 0.835 µM | – | – | – | – | – | – | – | – | – | – | – | 1.49
[17], 1.086 µM | – | – | – | – | – | – | – | – | – | – | – | 1.13
[17], 1.09846 µM | – | – | – | – | – | – | – | – | – | – | – | 0.655
[17], 1.412 µM | – | – | – | – | – | – | – | – | – | – | – | 0.667
[17], 1.64769 µM | – | – | – | – | – | – | – | – | – | – | – | 1.2
[17], 1.835 µM | – | – | – | – | – | – | – | – | – | – | – | 0.75
[17], 2.386 µM | – | – | – | – | – | – | – | – | – | – | – | 0.583
[17], 2.47154 µM | – | – | – | – | – | – | – | – | – | – | – | 0.315
[17], 3.70731 µM | – | – | – | – | – | – | – | – | – | – | – | 0.06
[18], exposure time: 2 dpf | – | 672 | – | – | – | – | – | – | – | – | – | –
[18], exposure time: 4 dpf | – | 586 | – | – | – | – | – | – | – | – | – | –
[19], exposure time: 2 dpf | – | – | – | – | – | – | – | – | 2140 | – | – | –
[19], exposure time: 4 dpf | – | – | – | – | – | – | – | – | 782 | – | – | –
[25], exposure time: 2 dpf | – | – | 651 | – | – | – | – | – | – | – | – | –
[25], exposure time: 4 dpf | – | – | 772 | – | – | – | – | – | – | – | – | –
[28], exposure time: 2 dpf | – | – | – | – | – | – | – | 1270 | – | – | – | –
[28], exposure time: 4 dpf | – | – | – | – | – | – | – | 1090 | – | – | – | –
[30], exposure time: 2 dpf | – | – | – | 1040 | – | – | – | – | – | – | – | –
[30], exposure time: 4 dpf | – | – | – | 411 | – | – | – | – | – | – | – | –
